“Also recorded” adds a separate entry of the source.
Assays:
[1] = target: T1, LPL (Mus musculus, UniProt P11152); assay: Organ distribution of 59Fe-SPIO- and 3H-triolein-labeled TRL after pre-injection of THL or heparin; type: in vivo; conditions: cold FVB mice; for uptake of 3H-triolein into BAT / uptake of 59Fe-SPIO into BAT: pre-injected 1 min before radiolabeled TRL i.v., organs 15 min after injection
T1 construct: from tissue; host or cells: living wild-type FVB mice (in vivo; endothelium of BAT, heart and other lipid-consuming tissues)
T1 sequence (P11152 28-474): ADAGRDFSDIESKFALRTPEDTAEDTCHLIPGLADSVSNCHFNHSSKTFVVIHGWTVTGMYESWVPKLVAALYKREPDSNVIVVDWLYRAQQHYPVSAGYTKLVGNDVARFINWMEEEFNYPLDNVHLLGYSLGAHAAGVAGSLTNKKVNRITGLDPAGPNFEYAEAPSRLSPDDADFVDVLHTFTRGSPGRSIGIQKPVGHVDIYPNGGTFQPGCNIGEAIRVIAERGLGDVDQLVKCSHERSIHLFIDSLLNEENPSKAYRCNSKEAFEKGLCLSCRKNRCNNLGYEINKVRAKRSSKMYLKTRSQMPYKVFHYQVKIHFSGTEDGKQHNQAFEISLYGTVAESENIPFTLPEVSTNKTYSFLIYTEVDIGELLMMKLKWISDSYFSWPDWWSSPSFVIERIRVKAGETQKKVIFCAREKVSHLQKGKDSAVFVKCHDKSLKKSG
Description: (§1) Turnover studies and organ distribution. For turnover studies, anesthetized mice were tail vein injected with 200 μl radiolabeled TRL. Lipoprotein turnover was determined from 10 μl plasma 0.5, 1, 2, 5 and 15 min after injection. After 15 min, blood was removed by cardiac puncture, the right atrium was opened, and the carcass was perfused through the left ventricle with PBS containing 50 U mL^1 heparin. Then, organs were harvested and weighed. For measurement of radioactivity, organs were solubilized in Solvable (PerkinElmer, Boston, USA, 0.1 mL per 10 mg organ), 200 μL were counted in scintillation fluid and TRL uptake was calculated as c.p.m. per mg organ. Oral fat tolerance tests were performed by gavage of 100 μL olive oil with [9,10-^3H(N)]-triolein (370 KBq per mouse). To measure lipoprotein production triton WR-1339 (Tyloxapol from Sigma; 0.5 mg per g body weight as 10% solution in PBS) was injected into the tail vein. Plasma was collected at indicated time points. For the measurement of hepatic production 1(3)-^3H glycerol (125 KBq per mouse) was injected prior to triton WR-1339. Lipids were extracted from plasma samples and ^3H-glycerol incorporated into triglycerides was measured as described above. For chylomicron production mice received ^3H-triolein in olive oil by gavage as described above directly after triton WR-1339 injection. Intestine-derived radioactivity in plasma was measured as described above. For manipulation of LPL function, THL (Roche, 12.5 mg ml^−1 DMSO) was diluted to 1.25 mg ml^−1 in 10% DMSO in PBS. Mice received 200 μL of either 0.25 mg THL, 50 U heparin (ratiopharm) or 10% DMSO in PBS (mock). After 1 min ^59Fe-SPIO- and ^3H-triolein-labeled TRL were injected and plasma clearance and organ uptake were determined as described above. For postprandial studies mice were i.p. injected with 0.25 mg THL or mock solution prior to gavage of 200 μL olive oil. Blood was collected at indicated time points and plasma triglyceride levels were determined.

[2] = target: T1, LPL; assay: Oral fat tolerance test in cold mice pre-treated with THL; type: in vivo; conditions: cold FVB mice; i.p. pre-treatment; versus mock-treated cold mice (no increase)
Description: as §1, with “For chylomicron production mice received ^3H-triolein in olive oil by gavage as described above directly after triton WR-1339 injection.” left out, “For manipulation of LPL function, THL (Roche, 12.5 mg ml^−1 DMSO) was diluted to 1.25 mg ml^−1 in 10% DMSO in PBS. Mice received 200 μL of either 0.25 mg THL, 50 U heparin (ratiopharm) or 10% DMSO in PBS (mock). After 1 min ^59Fe-SPIO- and ^3H-triolein-labeled TRL were injected and plasma clearance and organ uptake were determined as described above. For postprandial studies mice were i.p. injected with 0.25 mg THL or mock solution prior to gavage of 200 μL olive oil.” left out

[3] = target: T1, LPL; assay: MRI of SPIO-nanosome uptake after pre-injection of THL, heparin or chylomicrons; type: in vivo, mice; conditions: for uptake of SPIO-nanosomes into BAT, T2*-weighted MRI: cold-exposed FVB mice, pre-injection 1 min before SPIO-nanosomes
Description: Animals and diets. All experimental procedures were performed with approval from the animal care committees responsible for the University Medical Center Hamburg-Eppendorf. Animals were housed at 22° C. with ad libitum access to standard laboratory chow diet. We used male and female age-matched (16-22 weeks) FVB wildtype mice which were fasted 24 h or 4 h prior to the experiment. Fasting (22° C.) and cold exposure (4° C.) was performed in single cages for 24 h unless indicated otherwise.
For manipulation of LPL function, THL (Roche, 12.5 mg ml^−1 DMSO) was diluted to 1.25 mg ml^−1 in 10% DMSO in PBS. Mice received 200 μL of either 0.25 mg THL, 50 U heparin (ratiopharm) or PBS (mock). After 1 min, SPIO-nanosomes were injected, and plasma clearance and organ uptake were determined by dynamic MRI.
In vivo imaging studies. MRI was performed as described before^14. Briefly, all static and dynamic MRI measurements were performed with a clinical 3 Tesla MR scanner (Philips Medical Systems, Netherlands) equipped with a custom-made small animal solenoid coil. The dynamic measurements were based on a gradient-echo sequence (Supplementary table 3). The applied sequence is highly sensitive to susceptibility effects caused by local magnetic field inhomogeneities caused by SPIO-TRL. DICOM data were processed with ImageJ (http://rsbweb.nih.gov/ij/). SPIO-nanosomes were injected via a tail vein catheter.

[4] = tested on: BAT; assay: Intravital confocal imaging of fluorescent-labeled TRL in BAT; type: in vivo, mice
Description: In vivo imaging studies. MRI was performed as described before. Briefly, all static and dynamic MRI measurements were performed with a clinical 3 Tesla MR scanner (Philips Medical Systems, Netherlands) equipped with a custom-made small animal solenoid coil. The dynamic measurements were based on a gradient-echo sequence (Supplementary table 3). The applied sequence is highly sensitive to susceptibility effects caused by local magnetic field inhomogeneities caused by SPIO-TRL. DICOM data were processed with Image (http://rsbweb.nih.gov/ij/). For cryo electron microscopy, SPIO-TRL were intravenously injected into control or cold wild-type FVB mice. After 30 min mice were sacrificed, BAT biopsies were taken and processed for transmission electron microscopy (TEM) as described. Micrographs were obtained with a FBI Eagle 4k CCD camera and a Technal 20 TEM operated at 200 kV. For environmental scanning electron microscopy studies of BAT anaesthetized mice were perfused with PBS-Heparin as above and organs were fixed with 2.5% glutaraldehyde in PBS, washed, and postfixed for 30 min with 1% […] in PBS. For intravital microscopy interscapular BAT was dissected in anaesthetized mice and visualized by a confocal microscope equipped with a resonant scanner (Nikon AIR). QD-labeled TRL and fluorescent probes were injected via a tail vein catheter and 15 or 30 confocal images per second were recorded. The acquired data sets were aligned to reduce object movements due to mouse breathing and denoised with a Savitzky-Golay filter in Nikon NIS Elements AR 3.10. Labeling, animations and quicktime-export were done with Adobe After Effects CS4.

Row | uptake of 3H-triolein into BAT [1] | uptake of 59Fe-SPIO into BAT [1] | uptake of TRL into the heart ([1]; pre-injected before radiolabeled TRL) | uptake of SPIO-nanosomes into the heart (myocard), T2*-weighted MRI ([3]; 24 h fasted FVB mice, inhibitor injected 1 min before SPIO-nanosomes) | uptake of SPIO-nanosomes into BAT, T2*-weighted MRI [3] | binding of a second bolus of TRL ([4]; time-delayed heparin injection) | Compound | plasma triglycerides after lipid gavage [2] | fluorescent-labeled TRL initially bound to the vascular wall ([4]; heparin after initial TRL binding) | already internalized TRL particles ([4]; time-delayed heparin injection)
1 | abolished | abolished | inhibited | not enhanced; also recorded: abolished | not enhanced; also recorded: abolished | – | CCCCCCCCCCC[C@@H](C[C@@H]1OC(=O)[C@H]1CCCCCC)OC(=O)[C@H](CC(C)C)NC=O [THL, Tetrahydrolipstatin] | significant postprandial triglyceride response | – | –
2 | blocked | blocked | – | – | blocked | blocked | heparin | – | released | no influence
